Molecules are shown by their SMILES.

For this series the following is noted: deionized water, 25° C., stirred for 20 hours, HPLC against tramadol hydrochloride as standard.

Protocol: The solubility of the salts of tramadol and a sugar substitute was determined as follows:
The requisite amount of the salt of tramadol and the appropriate sugar substitute can optionally be determined by preliminary experiments.
After the undissolved salt of tramadol and the appropriate sugar substitute had been allowed to settle out, the clear supernatant was pipetted off and centrifuged for 5 minutes at a speed of at least 3000 rpm. Part of the resulting clear supernatant is transferred to an HPLC sample vial and the concentration of the salt of tramadol and the appropriate sugar substitute is determined against tramadol hydrochloride as standard.

The compound `COc1cccc(C2(O)CCCCC2CN(C)C)c1.O=C1NS(=O)(=O)c2ccccc21` (stereo not shown) [tramadol saccharinate] returned a solubility in water of 22.5 mg/mL.
